Measurements from ChEMBL document CHEMBL5506059, “Cyanomethylquinolones as a New Class of Potential Multitargeting Broad-Spectrum Antibacterial Agents” (J Med Chem, 2024).
Converted amounts (≈) assume the structure as drawn.

Key:
Assay type in all cases: functional
[1] = system: Staphylococcus aureus; assay: Antibacterial activity against Staphylococcus aureus clinical isolate assessed as inhibition of bacterial growth incubated for 24 hrs
[2] = system: Acinetobacter baumannii; assay: Antibacterial activity against Acinetobacter baumannii clinical isolate assessed as inhibition of bacterial growth incubated for 24 hrs
[3] = system: Escherichia coli; assay: Antibacterial activity against Escherichia coli ATCC 25922 assessed as inhibition of bacterial growth incubated for 24 hrs
[4] = system: Staphylococcus aureus; assay: Antibacterial activity against Staphylococcus aureus ATCC 25923 assessed as inhibition of bacterial growth incubated for 24 hrs
[5] = system: Enterococcus faecalis; assay: Antibacterial activity against Enterococcus faecalis clinical isolate assessed as inhibition of bacterial growth incubated for 24 hrs
[6] = system: Escherichia coli; assay: Antibacterial activity against Escherichia coli clinical isolate assessed as inhibition of bacterial growth incubated for 24 hrs
[7] = system: Pseudomonas aeruginosa; assay: Antibacterial activity against Pseudomonas aeruginosa clinical isolate assessed as inhibition of bacterial growth incubated for 24 hrs
[8] = system: Staphylococcus aureus; assay: Antibacterial activity against methicillin resistant Staphylococcus aureus clinical isolate assessed as inhibition of bacterial growth incubated for 24 hrs
[9] = system: Staphylococcus aureus; assay: Antibacterial activity against Staphylococcus aureus ATCC 29213 assessed as inhibition of bacterial growth incubated for 24 hrs
[10] = system: Klebsiella pneumoniae; assay: Antibacterial activity against Klebsiella pneumoniae clinical isolate assessed as inhibition of bacterial growth incubated for 24 hrs
[11] = system: Pseudomonas aeruginosa; assay: Antibacterial activity against Pseudomonas aeruginosa ATCC 27853 assessed as inhibition of bacterial growth incubated for 24 hrs

SMILES	MIC [1] [µg/mL]	MIC [2] [µg/mL]	MIC [3] [µg/mL]	MIC [4] [µg/mL]	MIC [5] [µg/mL]	MIC [6] [µg/mL]	MIC [7] [µg/mL]	MIC [8] [µg/mL]	MIC [9] [µg/mL]	MIC [10] [µg/mL]	MIC [11] [µg/mL]
N#CCc1cc2c(cc1F)c(=O)c(C(=O)O)cn2Cc1ccc(Cl)cc1	256 (≈ 690 µM)	16 (≈ 43.2 µM)	256 (≈ 690 µM)	0.5 (≈ 1.35 µM)	256 (≈ 690 µM)	256 (≈ 690 µM)	0.5 (≈ 1.35 µM)	256 (≈ 690 µM)	4 (≈ 10.8 µM)	256 (≈ 690 µM)	256 (≈ 690 µM)
CCCn1cc(C(=O)O)c(=O)c2cc(F)c(CC#N)cc21	4 (≈ 13.9 µM)	32 (≈ 111 µM)	2 (≈ 6.94 µM)	0.25 (≈ 0.867 µM)	32 (≈ 111 µM)	8 (≈ 27.8 µM)	0.5 (≈ 1.73 µM)	1 (≈ 3.47 µM)	4 (≈ 13.9 µM)	1 (≈ 3.47 µM)	2 (≈ 6.94 µM)
N#CCc1cc2c(cc1F)c(=O)c(C(=O)O)cn2Cc1cccc(Cl)c1	256 (≈ 690 µM)	16 (≈ 43.2 µM)	0.5 (≈ 1.35 µM)	0.5 (≈ 1.35 µM)	256 (≈ 690 µM)	2 (≈ 5.39 µM)	0.25 (≈ 0.674 µM)	256 (≈ 690 µM)	0.5 (≈ 1.35 µM)	1 (≈ 2.7 µM)	0.5 (≈ 1.35 µM)
Cn1cc(C(=O)O)c(=O)c2cc(F)c(CC#N)cc21	1 (≈ 3.84 µM)	4 (≈ 15.4 µM)	1 (≈ 3.84 µM)	1 (≈ 3.84 µM)	4 (≈ 15.4 µM)	16 (≈ 61.5 µM)	0.5 (≈ 1.92 µM)	2 (≈ 7.69 µM)	8 (≈ 30.7 µM)	0.5 (≈ 1.92 µM)	2 (≈ 7.69 µM)
CCn1cc(C(=O)O)c(=O)c2cc(F)c(CC(=O)O)cc21	64 (≈ 218 µM)	16 (≈ 54.6 µM)	8 (≈ 27.3 µM)	16 (≈ 54.6 µM)	0.5 (≈ 1.71 µM)	8 (≈ 27.3 µM)	8 (≈ 27.3 µM)	64 (≈ 218 µM)	32 (≈ 109 µM)	1 (≈ 3.41 µM)	2 (≈ 6.82 µM)
N#CCc1cc2c(cc1F)c(=O)c(C(=O)O)cn2Cc1ccc(Cl)cc1Cl	256 (≈ 632 µM)	8 (≈ 19.7 µM)	1 (≈ 2.47 µM)	0.5 (≈ 1.23 µM)	256 (≈ 632 µM)	1 (≈ 2.47 µM)	0.5 (≈ 1.23 µM)	256 (≈ 632 µM)	2 (≈ 4.94 µM)	16 (≈ 39.5 µM)	32 (≈ 79 µM)
N#CCc1cc2c(cc1F)c(=O)c(C(=O)O)cn2Cc1ccc(Cl)c(Cl)c1	256 (≈ 632 µM)	0.5 (≈ 1.23 µM)	2 (≈ 4.94 µM)	0.25 (≈ 0.617 µM)	256 (≈ 632 µM)	8 (≈ 19.7 µM)	0.5 (≈ 1.23 µM)	256 (≈ 632 µM)	2 (≈ 4.94 µM)	16 (≈ 39.5 µM)	2 (≈ 4.94 µM)
N#CCc1cc2c(cc1F)c(=O)c(C(=O)O)cn2CC(=O)N1CCCCC1	128 (≈ 345 µM)	64 (≈ 172 µM)	4 (≈ 10.8 µM)	16 (≈ 43.1 µM)	64 (≈ 172 µM)	16 (≈ 43.1 µM)	1 (≈ 2.69 µM)	4 (≈ 10.8 µM)	4 (≈ 10.8 µM)	16 (≈ 43.1 µM)	4 (≈ 10.8 µM)
CC(C)=CCn1cc(C(=O)O)c(=O)c2cc(F)c(CC#N)cc21	256 (≈ 814 µM)	256 (≈ 814 µM)	0.5 (≈ 1.59 µM)	0.25 (≈ 0.795 µM)	128 (≈ 407 µM)	256 (≈ 814 µM)	0.5 (≈ 1.59 µM)	1 (≈ 3.18 µM)	16 (≈ 50.9 µM)	0.5 (≈ 1.59 µM)	2 (≈ 6.36 µM)
CCCCn1cc(C(=O)O)c(=O)c2cc(F)c(CC#N)cc21	8 (≈ 26.5 µM)	256 (≈ 847 µM)	0.5 (≈ 1.65 µM)	0.25 (≈ 0.827 µM)	64 (≈ 212 µM)	4 (≈ 13.2 µM)	0.5 (≈ 1.65 µM)	0.5 (≈ 1.65 µM)	8 (≈ 26.5 µM)	1 (≈ 3.31 µM)	4 (≈ 13.2 µM)
N#CCc1cc2c(cc1F)c(=O)c(C(=O)O)cn2CC1CC1	256 (≈ 853 µM)	0.25 (≈ 0.833 µM)	0.25 (≈ 0.833 µM)	0.25 (≈ 0.833 µM)	64 (≈ 213 µM)	1 (≈ 3.33 µM)	0.25 (≈ 0.833 µM)	0.5 (≈ 1.67 µM)	1 (≈ 3.33 µM)	2 (≈ 6.66 µM)	1 (≈ 3.33 µM)
CCCCCCCCn1cc(C(=O)O)c(=O)c2cc(F)c(CC(=O)O)cc21	16 (≈ 42.4 µM)	4 (≈ 10.6 µM)	2 (≈ 5.3 µM)	4 (≈ 10.6 µM)	2 (≈ 5.3 µM)	2 (≈ 5.3 µM)	1 (≈ 2.65 µM)	4 (≈ 10.6 µM)	4 (≈ 10.6 µM)	0.5 (≈ 1.32 µM)	2 (≈ 5.3 µM)
N#CCc1cc2c(cc1F)c(=O)c(C(=O)O)cn2Cc1c(F)cccc1F	4 (≈ 10.7 µM)	8 (≈ 21.5 µM)	2 (≈ 5.37 µM)	4 (≈ 10.7 µM)	2 (≈ 5.37 µM)	32 (≈ 86 µM)	4 (≈ 10.7 µM)	4 (≈ 10.7 µM)	4 (≈ 10.7 µM)	8 (≈ 21.5 µM)	4 (≈ 10.7 µM)
CCCCCn1cc(C(=O)O)c(=O)c2cc(F)c(CC#N)cc21	256 (≈ 809 µM)	256 (≈ 809 µM)	0.25 (≈ 0.79 µM)	0.25 (≈ 0.79 µM)	256 (≈ 809 µM)	16 (≈ 50.6 µM)	1 (≈ 3.16 µM)	0.5 (≈ 1.58 µM)	8 (≈ 25.3 µM)	1 (≈ 3.16 µM)	4 (≈ 12.6 µM)
